# According to patent publication US20250382346A1, “NEURONAL PROMOTERS AND USES THEREOF” (priority 2023, published 2025):
# Entries after “also recorded” stand apart in the source; their conditions may differ.
# What was measured:
# [1] = Locomotion test in naïve macaques (no viral injection); type: in vivo; details: DCZ 0.3 mg/kg i.m.
# rM3Ds [2] = molecular target: T1, rM3Ds (Rattus norvegicus, UniProt P08483, A177S/A238G/A489L/DEL261-437/DEL441-478/E258S/I253V/I483M/INS256[…]/K178L/K182A/K255R/K484R/K486H/L173F/L482A/M480V/R171S/R176Q/R179M/S481M/T174R/T181R/T257A/Y148C)
# T1 sequence (P08483 with tags, fused parts or gaps Y148C/R171S/L173F/T174R/R176Q/A177S/K178L/R179M/T181R/K182A/A238G/I253V/K255R/INS256[…]/T257A/E258S/DEL261-437/DEL441-478/M480V/S481M/L482A/I483M/K484R/K486H/A489L): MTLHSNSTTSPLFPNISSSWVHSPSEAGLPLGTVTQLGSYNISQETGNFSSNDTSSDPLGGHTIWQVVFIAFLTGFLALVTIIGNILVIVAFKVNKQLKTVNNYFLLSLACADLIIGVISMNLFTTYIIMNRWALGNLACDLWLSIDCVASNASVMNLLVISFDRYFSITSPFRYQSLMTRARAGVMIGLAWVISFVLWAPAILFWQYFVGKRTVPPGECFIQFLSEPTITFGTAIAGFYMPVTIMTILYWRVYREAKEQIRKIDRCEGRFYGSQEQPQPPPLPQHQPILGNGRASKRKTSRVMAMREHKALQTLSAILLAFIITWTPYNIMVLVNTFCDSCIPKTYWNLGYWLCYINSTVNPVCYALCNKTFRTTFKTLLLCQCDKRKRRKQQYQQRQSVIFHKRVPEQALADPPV
# Description: Monkeys were continuously monitored by veterinarians after lesion.
# Dyskinesia score criteria were: 0: Absent. 1: Mild, fleeting, present <30% of the observation period.
# Each block included ten continuous trials.
# Customized surface EMG electrodes were used for EMG recordings. […] The recording procedure was conducted immediately after DCZ infusions.
# [3] = Blood test of liver- and kidney-related factors during DCZ treatment; type: in vivo, macaques; details: n=3 monkeys
# Excerpt: FIG. 36A-36F depict effects of D1-MSN activation on dyskinesia-like behavior and health state-related blood factors in parkinsonian macaques. FIG. 36A illustrates quantitation of dyskinesia score at 2 months, 4 months, and 8 months after treatment with DCZ. n=3 monkeys per group.
# Intriguingly, many of the symptoms were greatly reversed after systemic deschloroclozapine (DCZ) administration. DCZ is a potent brain-penetrable agonist for rM3Ds with reduced off-targeting binding compared to CNO, and was administered to activate the DREADD system in the macaque brain.
# [4] = CSF concentration of DCZ by LC-MS; details: 24 hours after drug infusion, 0.3 mg/kg i.m.
# rM3Ds [5] = molecular target: T1, rM3Ds; assay: In vivo electrophysiological recording in caudate/putamen of anesthetized macaques, rM3Ds; design: 2A-EYFP (C); expressed in transfected cells; host or cells: neurons (striatal D1-MSNs) of mice or cynomolgus macaques, transduced in vivo by nigral AAV8R12-G88P7-rM3Ds-2A-EYFP; details: MPP+ lesioned macaques, CNO 36 cells, DCZ 31 cells
# Description: • Electrophysiological recording was performed through a recording chamber while the monkey was anesthetized. Neural responses were recorded by a 16-channel linear probe (Plexon Inc, Uprobe) driven by a mechanical microdrive (Alpha Omega, FlexMT). Signals were passed through a head stage (Plexon Inc, HST/16V-G20 LN) and then split and filtered between 300 Hz and 5 kHz to identify spiking activity with an amplifier system (Plexon Inc, OmniPlex). Detected spikes were then sorted by commercially available software (Plexon Inc, Offline Sorter) for further analysis. To quantify the effect of CNO/DCZ injection, neural activity was recorded for 60 minutes following CNO/DCZ injection. The response time-course for each channel was obtained by counting the spikes within every 10-minute window and then normalizing to the maximal.
# To determine the effect of CNO/DCZ injection on the direction of signal change, we performed Pearson correlation between neural responses and time using the ‘corr’ function in Matlab, which generates the correlation coefficient ‘r’ and significant level ‘p’. A neuron was considered to have “Increased” activity when r>0 and p<0.05; and considered to have “Decreased” activity when r<0 and p<0.05. Otherwise, neurons were considered to be “Unchanged” in their neural activities. The responses of all increased neurons were then averaged after being normalized by the maximal response (Crowe et al., 2014; Dai and Wang, 2018; Hirokawa et al., 2019) following CNO/DCZ injection, and then plotted as a function of time to generate the normalized population response.
# To enable in-vivo verification of the strategy via an opto-tagging approach, AAV virus encoding opsin ChR2 (AAV9-EF1α-DIO-ChR2-EYFP) was injected into the striatum with simultaneous nigral infusion of a retrograde AAV encoding Cre and rM3Ds (AAV8R12-G88P7-HA-rM3Ds-2A-Cre). A total volume of 27 μl (3 μl×9 sites) and 30 μl (3 μl×10 sites) were injected in the SNr and the striatum, respectively. A recording chamber was implanted above the striatum to allow optical stimulation and electrophysiological recording.
# Optogenetic verification was conducted six weeks after virus injections. A 16-channel linear probe with an embedded optic fiber (Plexon Inc., Uprobe) was used to deliver light stimulation and record neural responses. A mechanical Microdrive (FlexMT, Alpha Omega, Nazareth, Israel) was used to mount and drive the probe. A blue laser (473 nm, Changchun New Industries Tech, MBL-III-473) was used to generate light stimulation, which was controlled by a DAQ board (National Instruments, PCIe-6321) through the MonkeyLogic toolbox (NIMH version).
# Light pulses of 40 Hz that last for 500 ms were used to probe neurons' responses to optical stimulation. […] Responses from these optically identified cells were grouped to generate the normalized population response as a function of time.
compound,measurement,setting,value
"CN1CCN(C2=Nc3ccccc3Nc3ccccc32)CC1 [DCZ, Deschloroclozapine]",motor-related behaviors in naïve monkeys,[1],did not alter motor-related behaviors in naïve monkeys
same,alleviation of parkinsonian symptoms during long-term treatment,rM3Ds [2]; DCZ 0.3 mg/kg every other day,consistent during an 8-month continuous treatment
same,reversal of parkinsonian symptoms (PD score),"rM3Ds [2]; MPP+ macaques with AAV8R12-G88P7-rM3Ds-2A-EYFP, DCZ 0.3 mg/kg i.m., L-Dopa/benserazide 20/5 mg/kg/day oral",reversal of canonical parkinsonian symptoms in all tested monkeys; also recorded: comparable efficiency to L-Dopa
same,motor skills (hand to mouth movement),"rM3Ds [2]; MPP+ macaques, DCZ treatment",significant recovery of motor skills; also recorded: partially restored this motor skill
same,tremor (EMG),"rM3Ds [2]; MPP+ macaques, DCZ treatment",great reduced or even eliminated; also recorded: removed
same,dyskinesia-like behaviors (dyskinesia score),"rM3Ds [2]; MPP+ macaques, long-term treatment",dyskinesia-free
same,window of efficacy after each dose (alleviating symptoms after drug administration),rM3Ds [2]; after the drug reached steady-state efficacy (FIG. 24C),at least 24 hours
same,"speed of reversal of symptoms, DCZ compared with levodopa",rM3Ds [2]; initial phase of drug administration,faster reversal of symptoms than levodopa; also recorded: reached stable efficacy faster than L-Dopa
same,duration of effect (FIG. 18C),rM3Ds [2]; n=3 monkeys,over 24 hr
same,effect of an extended period (4 months) of prior L-Dopa administration on DCZ treatment,"rM3Ds [2]; one month washout, then DCZ 2 months",did not affect the efficacy of DCZ treatment or the absence of dyskinesia
same,"blood levels of common liver- and kidney-related factors (ALT, AST, GGT, CREA, BUN)",[3],remained stable
same,DCZ level in cerebrospinal fluid,[4],no detectable levels
same,cells in caudate/putamen activated (FIG. 15G),rM3Ds [5]; saline 17.9%,41.9%
same,cells in caudate/putamen inactivated (FIG. 15G),rM3Ds [5]; saline 33.4%,9.7%
same,cells in caudate/putamen unchanged (FIG. 15G),rM3Ds [5]; saline 48.7%,48.4%
